ChEMBL document CHEMBL1149313, “Synthesis of classical, three-carbon-bridged 5-substituted furo[2,3-d]pyrimidine and 6-substituted pyrrolo[2,3-d]pyrimidine analogues as antifolates” (J Med Chem, 2004)

What was measured:
[1] = target: T1, Folylpolyglutamate synthase, mitochondrial (Homo sapiens) (UniProt Q05932); experiment: Ratio of Vmax to Km of human recombinant cytosolic FPGS
T1 sequence (whole entry): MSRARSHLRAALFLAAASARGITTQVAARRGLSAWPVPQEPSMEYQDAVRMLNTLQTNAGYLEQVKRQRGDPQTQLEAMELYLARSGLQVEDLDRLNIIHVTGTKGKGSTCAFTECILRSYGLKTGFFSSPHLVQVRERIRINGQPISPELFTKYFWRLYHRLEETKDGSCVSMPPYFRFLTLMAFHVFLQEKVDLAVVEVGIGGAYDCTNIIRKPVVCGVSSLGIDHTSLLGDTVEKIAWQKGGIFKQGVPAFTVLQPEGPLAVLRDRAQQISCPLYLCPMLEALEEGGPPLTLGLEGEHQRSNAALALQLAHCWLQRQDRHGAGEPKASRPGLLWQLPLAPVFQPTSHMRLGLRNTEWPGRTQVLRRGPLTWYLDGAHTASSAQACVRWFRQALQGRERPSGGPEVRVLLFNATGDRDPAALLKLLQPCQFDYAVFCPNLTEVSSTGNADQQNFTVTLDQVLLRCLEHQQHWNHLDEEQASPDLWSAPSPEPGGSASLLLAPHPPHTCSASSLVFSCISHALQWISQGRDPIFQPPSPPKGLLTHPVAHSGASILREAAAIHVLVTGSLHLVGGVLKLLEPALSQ

Thymidylate synthase [2] = target: Thymidylate synthase (Homo sapiens, UniProt P04818); experiment: Inhibition of human recombinant thymidylate synthase
Thymidylate synthase [3] = target: T2, Thymidylate synthase (Lactobacillus casei, UniProt P00469); experiment: Inhibition of Lactobacillus casei thymidylate synthase; design: species or system Lacticaseibacillus casei
T2 sequence (P00469 whole entry): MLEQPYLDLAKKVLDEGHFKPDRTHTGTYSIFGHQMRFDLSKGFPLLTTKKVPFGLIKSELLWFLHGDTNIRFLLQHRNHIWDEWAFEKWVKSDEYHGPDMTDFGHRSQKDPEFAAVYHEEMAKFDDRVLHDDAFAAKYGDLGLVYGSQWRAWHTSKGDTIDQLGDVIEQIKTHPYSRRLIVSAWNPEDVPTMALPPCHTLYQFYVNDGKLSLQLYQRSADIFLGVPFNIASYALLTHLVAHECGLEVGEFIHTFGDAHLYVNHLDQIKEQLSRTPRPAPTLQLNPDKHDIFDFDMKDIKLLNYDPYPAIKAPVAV

Dihydrofolate reductase [4] = target: T3, Dihydrofolate reductase (Escherichia coli, UniProt P0ABQ4)
T3 sequence (P0ABQ4 whole entry): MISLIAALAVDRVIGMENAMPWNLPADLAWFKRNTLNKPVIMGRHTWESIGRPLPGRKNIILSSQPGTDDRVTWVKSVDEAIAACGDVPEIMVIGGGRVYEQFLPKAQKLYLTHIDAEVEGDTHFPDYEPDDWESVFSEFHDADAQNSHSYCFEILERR
Description: Inhibition of Escherichia coli DHFR

[5] = Cytotoxicity against human SK-MEL-28 cells; assay type: cell-based
[6] = Cytotoxicity against human HL60 cells; assay type: cell-based; conditions: HL-60 cells
CCRF-CEM [7] = experiment: Cell growth in human CCRF-CEM cells in presence of thymidine and hypoxanthine and 10 uM deoxycytidine relative to control; assay type: functional
[8] = Cytotoxicity against human CCRF-CEM cells; assay type: cell-based
Thymidylate synthase [9] = target: Thymidylate synthase (Escherichia coli, UniProt C3SWJ7); experiment: Inhibition of Escherichia coli thymidylate synthase
[10] = Cytotoxicity against human MCF7 cells; assay type: cell-based
CCRF-CEM [11] = experiment: Cell growth in human CCRF-CEM cells relative to control; assay type: functional
CCRF-CEM [12] = experiment: Growth inhibition of human CCRF-CEM cells at 1500 nM; assay type: functional
[13] = Cytotoxicity against human SW620 cells; assay type: cell-based; conditions: SW-620 cells
Dihydrofolate reductase [14] = target: Dihydrofolate reductase (Lactobacillus casei, UniProt P00381)
Description: Inhibition of Lactobacillus casei DHFR

[15] = Cytotoxicity against human K562 cells; assay type: cell-based
SF-268 = experiment: Cytotoxicity against SF268 cells; assay type: functional; conditions: Homo sapiens
CCRF-CEM [16] = experiment: Cell growth in human CCRF-CEM cells in presence of 10 uM hypoxanthine and 10 uM deoxycytidine relative to control; assay type: functional
[17] = Cytotoxicity against human HOP92 cells; assay type: cell-based; conditions: HOP-92 cells
[18] = Cytotoxicity against human MDA-MB-435 cells; assay type: cell-based
[19] = Cytotoxicity against MDAN cells; assay type: cell-based, MDA-N; conditions: human
Dihydrofolate reductase [20] = target: T4, Dihydrofolate reductase (Homo sapiens, UniProt P00374)
T4 sequence (P00374 whole entry): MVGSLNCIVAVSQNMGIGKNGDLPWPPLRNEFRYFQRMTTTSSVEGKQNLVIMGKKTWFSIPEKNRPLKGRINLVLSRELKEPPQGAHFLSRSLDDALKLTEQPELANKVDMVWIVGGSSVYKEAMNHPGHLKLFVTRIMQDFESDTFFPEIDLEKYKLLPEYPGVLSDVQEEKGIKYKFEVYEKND
Description: Inhibition of human recombinant DHFR

[21] = Cytotoxicity against human SR cells; assay type: cell-based
CCRF-CEM [22] = experiment: Cell growth in human CCRF-CEM cells in presence of 5 uM thymidine and 10 uM deoxycytidine relative to control; assay type: functional
[23] = Cytotoxicity against human 786-0 cells; assay type: cell-based
[24] = Cytotoxicity against human HCT116 cells; assay type: cell-based; conditions: HCT-116 cells
[25] = Cytotoxicity against human A549 cells; assay type: cell-based
[26] = Cytotoxicity against human NCI-H460 cells; assay type: cell-based
[27] = Cytotoxicity against human PC3 cells; assay type: cell-based; conditions: PC-3 cells
CCRF-CEM [28] = experiment: Growth inhibition in human CCRF-CEM cells assessed as cell growth relative to control; assay type: functional; design: scale not given: the % may be the effect or the level left
CCRF-CEM [29] = experiment: Cell growth in human CCRF-CEM cells at 30 nM in presence of thymidine, hypoxanthine and 10 uM deoxycytidine; assay type: functional
CCRF-CEM [30] = experiment: Cell growth in human CCRF-CEM cells at 30 nM in presence of 5 uM thymidine and 10 uM deoxycytidine relative to control; assay type: functional
CCRF-CEM [31] = experiment: Cell growth in human CCRF-CEM cells at 30 nM in presence of 10 uM hypoxanthine and 10 uM deoxycytidine; assay type: functional
[32] = substrate: Nc1nc(N)c2c(CCCc3ccc(C(=O)N[C@@H](CCC(=O)O)C(=O)O)cc3)coc2n1; experiment: Activity of human recombinant cytosolic FPGS
[33] = substrate: Nc1nc(N)c2c(CCCc3ccc(C(=O)N[C@@H](CCC(=O)O)C(=O)O)cc3)coc2n1; experiment: (§1) Activity of human recombinant cytosolic FPGS relative to aminopterin
[34] = substrate: Nc1nc(N)c2c(CCc3ccc(C(=O)N[C@@H](CCC(=O)O)C(=O)O)cc3)coc2n1; experiment: as §1

Chain of Thymidylate synthase (Homo sapiens, UniProt P04818) (P04818 whole entry): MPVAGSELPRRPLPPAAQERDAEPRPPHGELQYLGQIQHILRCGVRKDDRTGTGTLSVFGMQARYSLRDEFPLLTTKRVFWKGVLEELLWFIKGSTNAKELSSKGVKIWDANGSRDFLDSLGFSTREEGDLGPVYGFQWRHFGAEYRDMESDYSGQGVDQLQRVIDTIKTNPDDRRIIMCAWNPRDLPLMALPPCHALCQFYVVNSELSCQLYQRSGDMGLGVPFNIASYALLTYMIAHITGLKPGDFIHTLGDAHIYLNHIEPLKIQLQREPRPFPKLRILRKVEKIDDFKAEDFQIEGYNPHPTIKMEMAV
Chain of Thymidylate synthase (Escherichia coli, UniProt C3SWJ7) (C3SWJ7 whole entry): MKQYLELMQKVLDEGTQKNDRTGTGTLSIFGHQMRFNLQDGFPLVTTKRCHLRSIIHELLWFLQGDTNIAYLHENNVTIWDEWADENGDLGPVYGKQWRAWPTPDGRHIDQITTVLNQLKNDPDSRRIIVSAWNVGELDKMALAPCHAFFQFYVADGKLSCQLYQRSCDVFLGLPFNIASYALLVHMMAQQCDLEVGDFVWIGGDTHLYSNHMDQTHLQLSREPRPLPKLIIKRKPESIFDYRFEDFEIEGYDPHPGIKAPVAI
Chain of Dihydrofolate reductase (Lactobacillus casei, UniProt P00381) (P00381 whole entry): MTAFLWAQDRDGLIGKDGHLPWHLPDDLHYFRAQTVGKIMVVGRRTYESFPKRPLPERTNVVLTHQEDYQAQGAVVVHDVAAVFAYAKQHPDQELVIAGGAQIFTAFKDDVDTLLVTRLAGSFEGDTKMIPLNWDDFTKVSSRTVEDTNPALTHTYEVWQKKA

`Nc1nc(N)c2nc(CNc3ccc(C(=O)N[C@@H](CCC(=O)O)C(=O)O)cc3)cnc2n1` showed a Ratio [1] of 0.22.

In the case of `Nc1nc2[nH]cc(CCc3ccc(C(=O)N[C@@H](CCC(=O)O)C(=O)O)cc3)c2c(=O)[nH]1` [PEMETREXED], the IC50 (Thymidylate synthase [2]) is reported as 19000 nM and the IC50 (Thymidylate synthase [3]) is reported as 38000 nM.

In the case of `Nc1nc(N)c2c(CCCc3ccc(C(=O)N[C@@H](CCC(=O)O)C(=O)O)cc3)coc2n1`, the IC50 (Dihydrofolate reductase [4]) is reported as 7000 nM, the GI50 [5] is reported as 100000 nM and the GI50 [6] is reported as 10 nM. It also gave an IC50 (Thymidylate synthase [2]) of over 18000 nM, an Activity (CCRF-CEM [7]) of 73.5% and a GI50 [8] of 42.9 nM. The IC50 (Thymidylate synthase [9]) was over 180000 nM, the GI50 [10] was 174 nM and the Activity (CCRF-CEM [11]) was 21%. It also gave an inhibition at 1.5 µM (CCRF-CEM [12]) of 80%, a GI50 [13] of 10 nM and an IC50 (Dihydrofolate reductase [14]) of 11000 nM. The GI50 [15] was 10 nM, the GI50 (SF-268) was 648 nM and the Activity (CCRF-CEM [16]) was 20%. It also gave a GI50 [17] of 95900 nM, a GI50 [18] of 21.4 nM and a GI50 [19] of 22.3 nM. The IC50 (Dihydrofolate reductase [20]) was 9000 nM, the Ratio [1] was 1.4 and the GI50 [21] was 10 nM. For the same molecule, the IC50 (Thymidylate synthase [3]) was over 100000 nM, the Activity (CCRF-CEM [22]) was 25.5% and the GI50 [23] was 123 nM. For the same molecule, the GI50 [24] was 10 nM, the GI50 [25] was 16.6 nM and the GI50 [26] was 10 nM. The GI50 [27] was 12.5 nM.

For `Nc1ccn([C@H]2C[C@H](O)[C@@H](CO)O2)c(=O)n1` [DOXECITINE], the Activity (CCRF-CEM [28]) was 97%.

In the case of `Nc1nc(N)c2c(CCc3ccc(C(=O)N[C@@H](CCC(=O)O)C(=O)O)cc3)coc2n1`, the Ratio [1] is reported as 0.07.

In the case of `CN(Cc1cnc2nc(N)nc(N)c2n1)c1ccc(C(=O)N[C@@H](CCC(=O)O)C(=O)O)cc1` [METHOTREXATE], the Activity (CCRF-CEM [7]) is reported as 73.5%, the Activity (CCRF-CEM [16]) is reported as 13.5% and the Activity (CCRF-CEM [29]) is reported as 74.5%. The Activity (CCRF-CEM [30]) was 16%, the Activity (CCRF-CEM [31]) was 15.5% and the Activity (CCRF-CEM [22]) was 12.5%.

B1: Folylpolyglutamate synthase, mitochondrial (Homo sapiens), Q05932 (protein)
chain: T1 sequence (whole entry)
B1 gave a Km [32] of 0.3 µM, a Vmax [33] of 0.42 and a Vmax [34] of 0.65.
